Measurements from ChEMBL document CHEMBL1131012, “Heteroaryl analogues of AMPA. 2. Synthesis, absolute stereochemistry, photochemistry, and structure-activity relationships” (J Med Chem, 1998).

Tests used:
[1] = biological target: Glutamate receptor ionotropic, kainate; assay: Ability to inhibit the binding of [3H]-kainic acid radioligand to Ionotropic glutamate receptor kainate in rat brain membranes.; type: cell membranes
Glutamate NMDA receptor = assay: Ability to inhibit the binding of [3H]CPP radioligand to N-methyl-D-aspartate glutamate receptor in rat brain membranes.; type: cell membranes
[2] = biological target: T1, Glutamate receptor ionotropic, AMPA (Rattus norvegicus, UniProt P19490+P19491+P19492+P19493)
Description: Agonist effect for Ionotropic glutamate receptor AMPA was determined from in vitro electrophysiology studies using rat cortical wedge preparation.

[3] = biological target: T1, Glutamate receptor ionotropic, AMPA; remark: listed apart in the source
Description: Ability to inhibit the binding of [3H]AMPA radioligand to Ionotropic glutamate receptor AMPA in rat brain membranes.

| Compound | IC50 [1] [µM] | IC50 (Glutamate NMDA receptor) [µM] | EC50 [2] [µM] | IC50 [3] [µM] |
| --- | --- | --- | --- | --- |
| NC(Cc1c(O)noc1-c1ccc2ccccc2n1)C(=O)O (stereo unspecified) | > 100 | > 100 | > 1000 | > 100 |
| C=C(C)[C@H]1CN[C@H](C(=O)O)[C@H]1CC(=O)O [KAINIC ACID] | – | > 100 | – | – |
| NC(Cc1c(O)noc1-c1nccs1)C(=O)O (stereo unspecified) | 4.9 | > 100 | 2.3 | 0.094 |
| N[C@H](Cc1c(O)noc1-c1ccccn1)C(=O)O | > 100 | > 100 | > 100 | > 100 |
| N[C@@H](Cc1c(O)noc1-c1ccccn1)C(=O)O | > 100 | > 100 | 4.5 | 0.19 |
| N[C@@H](Cc1c(-c2ccccc2)o[nH]c1=O)C(=O)O | – | – | – | 5.5 |
| NC(Cc1c(O)noc1-c1ccncc1)C(=O)O (stereo unspecified) | > 100 | > 100 | 96 | 5.5 |
| Cc1cccc(-c2onc(O)c2CC(N)C(=O)O)n1 (stereo unspecified) | > 100 | > 100 | > 1000 | > 100 |

The remaining lines, values ahead:

| IC50 [1] [µM] | IC50 (Glutamate NMDA receptor) [µM] | EC50 [2] [µM] | IC50 [3] [µM] | Compound |
| --- | --- | --- | --- | --- |
| > 100 | > 100 | 0.71 | 0.11 | N[C@@H](Cc1c(O)noc1-c1ccco1)C(=O)O |
| > 100 | > 100 | 160 | 12 | NC(Cc1c(O)noc1-c1ccc(Br)o1)C(=O)O (stereo unspecified) |
| > 100 | > 100 | 1.7 | 0.15 | NC(Cc1c(O)noc1-c1ccco1)C(=O)O (stereo unspecified) |
| > 100 | > 100 | 7.4 | 0.57 | NC(Cc1c(O)noc1-c1ccccn1)C(=O)O (stereo unspecified) |
| > 100 | > 100 | > 1000 | > 100 | NC(Cc1c(O)noc1-c1cccnc1)C(=O)O (stereo unspecified) |
| – | – | > 100 | – | N[C@H](Cc1c(O)noc1-c1ccccc1)C(=O)O |
| > 100 | > 100 | > 1000 | 100 | N[C@H](Cc1c(O)noc1-c1ccco1)C(=O)O |
